Patent publication US10273267B2, “Beta-hairpin peptidomimetics as selective elastase inhibitors” (POLYPHOR AG, priority 2013, dated 2019)
Where a SMILES comes first, the peptide text is derived from it. [ ]: non-standard residue; d: D form. Gly(octyl) = CCCCCCCC[C@H](N)C(=O)O; hTyr = N[C@@H](CCc1ccc(O)cc1)C(=O)O; aThr = C[C@H](O)[C@H](N)C(=O)O; AllylGly = C=CC[C@H](N)C(=O)O; hSer = N[C@@H](CCO)C(=O)O; Nlys = NCCCCNCC(=O)O

What was measured:
Assay type in all cases: biochemical
[1] = target: T1, human proteinase 3 (Homo sapiens, UniProt P24158); test: Inhibition of human proteinase 3 (substrate Boc-Ala-Ala-Nva-SBzl); details: for hNE/hPr3 selectivity: ratio of hPr3 IC50 to hNE IC50; for IC50: substrate Boc-Ala-Ala-Nva-SBzl 1 mM, enzyme 10 nM, 37° C., pH7.4, read-out: Human proteinase 3 (hPr3) IC50
T1 construct: purchased Elastin Products Company, USA
T1 sequence (P24158 28-248): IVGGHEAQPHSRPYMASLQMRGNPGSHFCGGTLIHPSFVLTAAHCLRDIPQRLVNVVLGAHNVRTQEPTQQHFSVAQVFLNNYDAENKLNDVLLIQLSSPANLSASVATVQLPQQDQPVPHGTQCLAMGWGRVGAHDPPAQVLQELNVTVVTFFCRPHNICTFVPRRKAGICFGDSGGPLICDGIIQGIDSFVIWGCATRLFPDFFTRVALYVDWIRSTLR
Procedure: 2.4 Inhibition of Human Proteinase 3
The inactivation of human proteinase 3 (Elastin Products Company, USA) by the peptides of the invention using synthetic tripeptidic substrate Boc-Ala-Ala-Nva-SBzl (Elastin Products Company, USA) was determined as follows:
(§1) The above substrate (1 mM), 4,4′-dithiodipyridine (250 μM) and human proteinase 3 (10 nM) were incubated at 37° C. with serial dilutions of the peptides (0.5% DMSO final) in assay buffer (50 mM Tris, pH7.4, 150 mM NaCl, 0.01% Tween20). The reaction process was followed by monitoring the change in absorbance at 340 nm for 30 minutes. Control assays with the same assay set-up as above, but without peptide, ran linearly. The dose-response data were fitted to the 4-parameter Hill equation providing the IC50 value using Graphpad (Prism 5).

[2] = target: T2, porcine pancreatic elastase (Sus scrofa, UniProt P00772); test: Inhibition of porcine pancreatic elastase (hydrolysis of MeOSuc-AAA-pNA); details: for hNE/PPE selectivity: ratio of PPE IC50 to hNE IC50; for IC50: substrate MeOSuc-AAA-pNA 1 mM, enzyme 15 nM, 37° C., pH8, read-out: Porcine pancreatic elastase (PPE) IC50
T2 construct: purchased Sigma, USA
T2 sequence (P00772 27-266): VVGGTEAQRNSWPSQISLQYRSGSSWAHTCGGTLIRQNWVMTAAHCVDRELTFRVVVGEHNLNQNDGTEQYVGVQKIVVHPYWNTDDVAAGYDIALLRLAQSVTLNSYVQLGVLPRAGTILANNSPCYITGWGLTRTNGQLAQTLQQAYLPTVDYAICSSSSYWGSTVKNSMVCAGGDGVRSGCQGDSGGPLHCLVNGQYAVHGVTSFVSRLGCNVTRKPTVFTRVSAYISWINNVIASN
Procedure: 2.3 Inhibition of Porcine Pancreatic Elastase
The ability of the peptides of the invention to inhibit the hydrolysis activity of porcine pancreatic elastase (Sigma, USA) using the synthetic tripeptidic substrate MeOSuc-AAA-pNA (Bachem, Switzerland) was determined as follows:
as §1, with “mM)” for “mM), 4,4′-dithiodipyridine (250 μM)”, “porcine pancreatic elastase (15” for “proteinase 3 (10”, “pH8, 100” for “pH7.4, 150”, “release of pNA” for “reaction process”, “405” for “340”

[3] = target: T3, human neutrophil elastase (Homo sapiens, UniProt P08246); test: Inhibition of human neutrophil elastase (hydrolysis of MeOSuc-AAPV-pNA); details: substrate MeOSuc-AAPV-pNA 0.3 mM, enzyme 10 nM, 37° C., pH 8; read-out: Human neutrophil elastase (hNE) IC50
T3 construct: purchased Serva Electrophoresis, Germany
T3 sequence (P08246 30-267): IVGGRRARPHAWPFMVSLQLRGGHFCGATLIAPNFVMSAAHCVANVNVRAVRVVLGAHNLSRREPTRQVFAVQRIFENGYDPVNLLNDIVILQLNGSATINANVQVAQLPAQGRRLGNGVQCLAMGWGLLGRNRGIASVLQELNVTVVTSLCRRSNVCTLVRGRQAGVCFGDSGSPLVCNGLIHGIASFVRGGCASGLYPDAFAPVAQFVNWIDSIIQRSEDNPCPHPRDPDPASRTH
Procedure: 2.2 Inhibition of Human Neutrophil Elastase
The ability of the peptides of the invention to inhibit the hydrolysis activity of human neutrophil elastase (Serva Electrophoresis, Germany) using the synthetic tetrapeptidic substrate MeOSuc-AAPV-pNA (Bachem, Switzerland) was determined as follows:
as §1, with “(0.3 mM)” for “(1 mM), 4,4′-dithiodipyridine (250 μM)”, “neutrophil elastase” for “proteinase 3”, “(1%” for “(0.5%”, “pH 8, 300” for “pH7.4, 150”, “release of pNA” for “reaction process”, “405” for “340”

Row | Compound | hNE/hPr3 selectivity [1] | IC50 [1] | hNE/PPE selectivity [2] | IC50 [2] | IC50 [3]
1 | CCCCCCCC[C@@H]1NC(=O)[C@@H]2CCCN2C(=O)[C@H]2CCCN2C(=O)[C@H]([C@@H](C)O)NC(=O)[C@H](CCCCN)NC(=O)[C@H](CCC(N)=O)NC(=O)[C@@H]2CCCN2C(=O)[C@@H]2CCCN2C(=O)[C@H]([C@@H](C)CC)NC(=O)[C@H](CO)NC(=O)[C@H](C)NC(=O)[C@H]([C@@H](C)O)NC(=O)[C@H](Cc2ccccc2)NC1=O [Example 13, Cyclo(-OctGly-Phe-Thr-Ala-Ser-Ile-Pro-Pro-Gln-Lys-Thr-^DPro-Pro-)] (cyclo([Gly(octyl)]FTASIPPQKT[dP]P)) | >9901 | > 100 µM | 2119 | 21.4 µM | 10.1 nM
2 | CCCCCCCC[C@@H]1NC(=O)[C@@H]2CCCN2C(=O)[C@H]2CCCN2C(=O)[C@H]([C@H](C)O)NC(=O)[C@H](CCCCN)NC(=O)[C@H](CCC(N)=O)NC(=O)[C@@H]2CCCN2C(=O)[C@@H]2CCCN2C(=O)[C@H]([C@@H](C)CC)NC(=O)[C@H](CO)NC(=O)[C@H](C)NC(=O)[C@H]([C@@H](C)O)NC(=O)[C@H](CCC(=O)O)NC1=O [Example 3, Cyclo(-OctGly-Glu-Thr-Ala-Ser-Ile-Pro-Pro-Gln-Lys-alloThr-^DPro-Pro-)] (cyclo([Gly(octyl)]ETASIPPQK[aThr][dP]P)) | 149 | 1.01 µM | 209 | 1.42 µM | 6.8 nM
3 | CCCCCCCC[C@@H]1NC(=O)[C@H](CCCCN)NC(=O)[C@@H](CCCCN)NC(=O)[C@H]([C@@H](C)O)NC(=O)[C@H](CCCCN)NC(=O)[C@H](CCC(N)=O)NC(=O)[C@@H]2CCCN2C(=O)[C@@H]2CCCN2C(=O)[C@H]([C@@H](C)CC)NC(=O)[C@H](CO)NC(=O)[C@H](C)NC(=O)[C@H]([C@@H](C)O)NC(=O)[C@H](CCC(=O)O)NC1=O [Example 28, Cyclo(-OctGly-Glu-Thr-Ala-Ser-Ile-Pro-Pro-GI n-Lys-Thr-^DLys-Lys-)] (cyclo([Gly(octyl)]ETASIPPQKT[dK]K)) | >8333 | > 100 µM | >8333 | > 100 µM | 12 nM
4 | CCCCCCCC[C@@H]1NC(=O)[C@@H]2CCCN2C(=O)[C@H]2CCCN2C(=O)[C@H](CC(N)=O)NC(=O)[C@H](CCCCN)NC(=O)[C@H](CCC(N)=O)NC(=O)[C@@H]2CCCN2C(=O)[C@@H]2CCCN2C(=O)[C@H]([C@@H](C)CC)NC(=O)[C@H](CO)NC(=O)[C@H](C)NC(=O)[C@H]([C@@H](C)O)NC(=O)[C@H](CCc2ccc(O)cc2)NC1=O [Example 48] (cyclo([Gly(octyl)][hTyr]TASIPPQKN[dP]P)) | 407 | 1.1 µM | 148 | 0.4 µM | 2.7 nM
5 | CCCCCCCC[C@@H]1NC(=O)[C@@H]2CCCN2C(=O)[C@H]2CCCN2C(=O)[C@H]([C@@H](C)O)NC(=O)[C@H](CCCCN)NC(=O)[C@H](CCC(N)=O)NC(=O)CN(CCCCN)C(=O)[C@@H]2CCCN2C(=O)[C@H]([C@@H](C)CC)NC(=O)[C@H](CO)NC(=O)[C@H](C)NC(=O)[C@H]([C@@H](C)O)NC(=O)[C@H](CCC(=O)O)NC1=O [Example 35, Cyclo(-OctGly-Glu-Thr-Ala-Ser-Ile-Pro-Nlys-Gln-Lys-Thr-^DPro-Pro-)] (cyclo([Gly(octyl)]ETASIP[Nlys]QKT[dP]P)) | 195 | 1.5 µM | 208 | 1.6 µM | 7.7 nM
6 | CCCCCCCC[C@@H]1NC(=O)[C@H](CCCCN)NC(=O)[C@@H](Cc2ccc(O)cc2)NC(=O)[C@H]([C@@H](C)O)NC(=O)[C@H](CCCCN)NC(=O)[C@H](CCC(N)=O)NC(=O)[C@@H]2CCCN2C(=O)[C@@H]2CCCN2C(=O)[C@H]([C@@H](C)CC)NC(=O)[C@H](CO)NC(=O)[C@H](C)NC(=O)[C@H]([C@@H](C)O)NC(=O)[C@H](CCC(=O)O)NC1=O [Example 25, Cyclo(-OctGly-Glu-Thr-Ala-Ser-Ile-Pro-Pro-GI n-Lys-Thr-^DTyr-Lys-)] (cyclo([Gly(octyl)]ETASIPPQKT[dY]K)) | 6531 | 41.8 µM | 7031 | 45 µM | 6.4 nM
7 | CCCCCCCC[C@@H]1NC(=O)[C@@H]2CCCN2C(=O)[C@H]2CCCN2C(=O)[C@H](CCOC)NC(=O)[C@H](CCCCN)NC(=O)[C@H](CCC(N)=O)NC(=O)[C@@H]2CCCN2C(=O)[C@@H]2CCCN2C(=O)[C@H]([C@@H](C)CC)NC(=O)[C@H](CO)NC(=O)[C@H](C)NC(=O)[C@H]([C@@H](C)O)NC(=O)[C@H](CCC(=O)O)NC1=O [Example 1, Cyclo(-OctGly-Glu-Thr-Ala-Ser-Ile-Pro-Pro-Gln-Lys-hSer(Me)-^DPro-Pro-)] (cyclo([Gly(octyl)]ETASIPPQK[hSer](Me)[dP]P)) | 150 | 0.72 µM | 129 | 0.62 µM | 4.8 nM
8 | CCCCCCCC[C@@H]1NC(=O)[C@H](Cc2ccc(O)cc2)NC(=O)[C@@H](C(C)C)NC(=O)[C@H]([C@@H](C)O)NC(=O)[C@H](CCCCN)NC(=O)[C@H](CCC(N)=O)NC(=O)[C@@H]2CCCN2C(=O)[C@@H]2CCCN2C(=O)[C@H]([C@@H](C)CC)NC(=O)[C@H](CO)NC(=O)[C@H](C)NC(=O)[C@H]([C@@H](C)O)NC(=O)[C@H](CCC(=O)O)NC1=O [Example 21, Cyclo(-OctGly-Glu-Thr-Ala-Ser-Ile-Pro-Pro-GI n-Lys-Thr-^DVal-Tyr-)] (cyclo([Gly(octyl)]ETASIPPQKT[dV]Y)) | 1008 | 13 µM | 822 | 10.6 µM | 12.9 nM
9 | CC[C@H](C)[C@@H]1NC(=O)[C@H](CO)NC(=O)[C@H](C)NC(=O)[C@H]([C@@H](C)O)NC(=O)[C@H](CCC(=O)O)NC(=O)[C@H](CCC(=O)N[C@@H](Cc2ccccc2)C(=O)O)NC(=O)[C@@H]2CCCN2C(=O)[C@H]2CCCN2C(=O)[C@H](Cc2ccc(O)cc2)NC(=O)[C@H](CCCCN)NC(=O)[C@H](CCC(N)=O)NC(=O)[C@@H]2CCCN2C(=O)[C@@H]2CCCN2C1=O [Example 18, Cyclo(-Glu(Phe)-Glu-Thr-Ala-Ser-Ile-Pro-Pro-Gln-Lys-Tyr-^DPro-Pro-)] (cyclo(E(Phe)ETASIPPQKY[dP]P)) | 2906 | 46.2 µM | 4660 | 74.1 µM | 15.9 nM
10 | C=CC[C@@H]1NC(=O)[C@H]([C@@H](C)O)NC(=O)[C@H](CCC(=O)O)NC(=O)[C@H](CCC(=O)N[C@@H](Cc2ccccc2)C(=O)O)NC(=O)[C@@H]2CCCN2C(=O)[C@H]2CCCN2C(=O)[C@H]([C@@H](C)O)NC(=O)[C@H](CCCCN)NC(=O)[C@H](CCC(N)=O)NC(=O)[C@@H]2CCCN2C(=O)[C@@H]2CCCN2C(=O)[C@H]([C@@H](C)CC)NC(=O)[C@H](CO)NC1=O [Example 19, Cyclo(-Glu(Phe)-Glu-Thr-AllylGly-Ser-Ile-Pro-Pro-Gln-Lys-Thr-^DPro-Pro-)] (cyclo(E(Phe)ET[AllylGly]SIPPQKT[dP]P)) | >3030 | > 100 µM | >3030 | > 100 µM | 33 nM
